In US10590132B2, “Selective estrogen receptor down-regulators” (AstraZeneca AB, priority 2017, dated 2020):

Test: Human plasma protein binding (equilibrium dialysis)
Type: in vitro ADME
Details: dialysis 18 hours

Compound	Human plasma protein binding (% free)
C[C@@H]1Cc2c([nH]c3ccccc23)[C@@H](c2c(F)ccc(OCCNCCCF)c2Cl)N1CC(F)(F)CO [Example 85, 3-((1R,3R)-1-(2-chloro-6-fluoro-3-(2-((3-fluoropropyl)amino)ethoxy)phenyl)-3-methyl-1,3,4,9-tetrahydro-2H-pyrido[3,4-b]indol-2-yl)-2,2-difluoropropan-1-ol]	1.0
COc1ccc(OCCNCCCF)nc1[C@@H]1c2[nH]c3ccccc3c2C[C@@H](C)N1CC(F)(F)F [Example 56, 3-fluoro-N-(2-((5-methoxy-6-((1S,3R)-3-methyl-2-(2,2,2-trifluoroethyl)-2,3,4,9-tetrahydro-1H-pyrido[3,4-b]indol-1-yl)pyridin-2-yl)oxy)ethyl)propan-1-amine]	4.6
C[C@@H]1Cc2c([nH]c3ccccc23)[C@@H](c2cncc(OCCNCCCF)c2)N1CC(F)(F)F [Example 101, 3-fluoro-N-(2-((5-((1R,3R)-3-methyl-2-(2,2,2-trifluoroethyl)-2,3,4,9-tetrahydro-1H-pyrido[3,4-b]indol-1-yl)pyridin-3-yl)oxy)ethyl)propan-1-amine]	8.4
Cc1c(N(C)CCNCCCF)ccc(F)c1[C@@H]1c2[nH]c3ccccc3c2C[C@@H](C)N1C[C@H](C)C(=O)O [Example 136, (S)-3-((1R,3R)-1-(6-fluoro-3-((2-((3-fluoropropyl)amino)ethyl)(methyl)amino)-2-methylphenyl)-3-methyl-1,3,4,9-tetrahydro-2H-pyrido[3,4-b]indol-2-yl)-2-methylpropanoic acid]	2.1
Cc1ncc(OCCNCCCF)cc1[C@@H]1c2[nH]c3ccccc3c2C[C@@H](C)N1CC(F)(F)F [Example 37, 3-fluoro-N-(2-((6-methyl-5-((1R,3R)-3-methyl-2-(2,2,2-trifluoroethyl)-2,3,4,9-tetrahydro-1H-pyrido[3,4-b]indol-1-yl)pyridin-3-yl)oxy)ethyl)propan-1-amine]	2.3
C[C@@H]1Cc2c([nH]c3ccc(F)cc23)[C@@H](c2c(F)ccc(NCCNCCCF)c2F)N1CC(F)(F)CO [Example 89, 3-((1R,3R)-1-(2,6-difluoro-3-((2-((3-fluoropropyl)amino)ethyl)amino)phenyl)-6-fluoro-3-methyl-1,3,4,9-tetrahydro-2H-pyrido[3,4-b]indol-2-yl)-2,2-difluoropropan-1-ol]	<3.4

Next, values leading:

Human plasma protein binding (% free)	Compound
19	Cc1c(N(C)CCN(C)CCCF)ccc(F)c1[C@@H]1c2[nH]c3ccccc3c2C[C@@H](C)N1C[C@H](C)C(=O)O [Example 147, (S)-3-((1R,3R)-1-(6-fluoro-3-((2-((3-fluoropropyl)(methyl)amino)ethyl)(methyl)amino)-2-methylphenyl)-3-methyl-1,3,4,9-tetrahydro-2H-pyrido[3,4-b]indol-2-yl)-2-methylpropanoic acid]
6.3	Cc1c([C@@H]2c3[nH]c4ccccc4c3C[C@@H](C)N2C[C@@H](C)C(=O)O)ccnc1OCCN(C)CCCF [Example 161, (R)-3-((1R,3R)-1-(2-(2-((3-fluoropropyl)(methyl)amino)ethoxy)-3-methylpyridin-4-yl)-3-methyl-1,3,4,9-tetrahydro-2H-pyrido[3,4-b]indol-2-yl)-2-methylpropanoic Acid]
2.7	C[C@@H]1Cc2c([nH]c3ccccc23)[C@@H](c2c(F)ccc(OCCN(C)CCCF)c2F)N1CC1(F)COC1 [Example 154, N-(2-(2,4-difluoro-3-((1R,3R)-2-((3-fluorooxetan-3-yl)methyl)-3-methyl-2,3,4,9-tetrahydro-1H-pyrido[3,4-b]indol-1-yl)phenoxy)ethyl)-3-fluoro-N-methylpropan-1-amine]
